Measurements: patent publication US20080194574A1, “Pyrazine Derivatives As Effective Compounds Against Infectious Diseases” (AXXIMA PHARMACEUTICALS AG, priority 2003, published 2008)
Read-outs that look alike come from different tables or passages of the source.

Target: T1, viral kinase pUL-97 (Human cytomegalovirus, UniProt P16788)
T1 construct: The pUL-97 gene was cloned into a baculovirus vector; GST (glutathione S-transferase) (N); made in house; host or cells: Sf9 insect cells, baculovirus
T1 sequence (P16788 whole entry): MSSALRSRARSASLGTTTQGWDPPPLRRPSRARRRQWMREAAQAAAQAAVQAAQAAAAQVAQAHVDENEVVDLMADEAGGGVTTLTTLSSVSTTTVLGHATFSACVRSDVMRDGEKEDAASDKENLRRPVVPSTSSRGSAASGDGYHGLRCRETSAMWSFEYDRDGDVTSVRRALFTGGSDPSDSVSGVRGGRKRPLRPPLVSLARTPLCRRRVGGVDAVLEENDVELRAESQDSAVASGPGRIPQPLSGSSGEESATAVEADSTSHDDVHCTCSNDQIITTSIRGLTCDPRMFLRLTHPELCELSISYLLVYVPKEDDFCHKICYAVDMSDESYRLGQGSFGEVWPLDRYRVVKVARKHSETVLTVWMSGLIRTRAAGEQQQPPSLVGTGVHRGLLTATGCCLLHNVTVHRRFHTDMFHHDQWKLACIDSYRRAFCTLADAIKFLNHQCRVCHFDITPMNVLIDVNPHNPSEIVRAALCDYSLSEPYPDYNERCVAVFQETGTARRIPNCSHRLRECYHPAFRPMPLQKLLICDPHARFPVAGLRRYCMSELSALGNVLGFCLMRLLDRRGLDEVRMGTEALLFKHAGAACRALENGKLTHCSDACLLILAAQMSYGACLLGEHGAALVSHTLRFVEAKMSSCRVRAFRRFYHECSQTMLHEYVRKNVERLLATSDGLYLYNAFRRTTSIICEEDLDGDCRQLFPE
Test: UL97 kinase assay on Immobilon plate
Assay type: biochemical
Settings: inhibition of UL 97 kinase activity, read-out: Activity Class [A, B, C]
Summary of the method: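 Compound was titrated into a radiometric reaction of Sf9-expressed GST-UL97 kinase, incubated 1 h at 30 °C in Tris-HCl pH 7.5/MnCl2/DTT buffer before EDTA stop. MBP substrate and ATP (3 μM in the added assay buffer) were supplied with γ-[33P]ATP. Labelled product bound to Immobilon filter was washed and counted by scintillation.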

[1] = class by IC50 / % inhibition at 10 or 100 μM
[2] = class by IC50 / % inhibition at 10 μM or 100 μM

COc1ccccc1N1CCN(c2cncc(-c3ccc(F)cc3)n2)CC1 [compound 106, 6′-(4-Fluoro-phenyl)-4-(2-methoxy-phenyl)-3,4,5,6-tetrahydro-2H-[1,2′]bipyrazinyl]
IC50 [1]: 1 to 10 µM

FC(F)(F)c1cccc(N2CCN(c3cncc(-c4ccc5ccccc5c4)n3)CC2)c1 [compound 252, 6′-Naphthalen-2-yl-4-(3-trifluoromethyl-phenyl)-3,4,5,6-tetrahydro-2H-[1,2′]bipyrazinyl]
IC50 [2]: 10 to 100 µM

c1ccc(-c2cncc(N3CCN(c4ccccc4)CC3)n2)cc1 [compound 109, 4,6′-Diphenyl-3,4,5,6-tetrahydro-2H-[1,2′]bipyrazinyl]
IC50 [1]: 1 to 10 µM

CC(=O)c1cccc(-c2cncc(N3CCN(c4cccc(C(F)(F)F)c4)CC3)n2)c1 [compound 162, 1-{3-[4-(3-Trifluoromethyl-phenyl)-3,4,5,6-tetrahydro-2H-[1,2′]bipyrazinyl-6′-yl]-phenyl}-ethanone]
IC50 [1]: 10 to 100 µM

Clc1ccc(-c2cncc(NCc3ccccc3)n2)cc1 [compound 27, Benzyl-[6-(4-chloro-phenyl)-pyrazin-2-yl]-amine]
IC50 [1]: 10 to 100 µM

6′-Benzo[b]thiophen-2-yl-4-pyridin-4-yl-3,4,5,6-tetrahydro-2H-[1,2′]bipyrazinyl [compound 69]
IC50 [1]: < 1 µM

COc1ccccc1N1CCN(c2cncc(-c3ccoc3)n2)CC1 [compound 90, 6′-Furan-3-yl-4-(2-methoxy-phenyl)-3,4,5,6-tetrahydro-2H-[1,2′]bipyrazinyl]
IC50 [1]: 1 to 10 µM

Fc1ccc(-c2cncc(NCc3ccco3)n2)c(F)c1 [compound 48, [6-(2,4-Difluoro-phenyl)-pyrazin-2-yl]-furan-2-ylmethyl-amine]
IC50 [1]: 1 to 10 µM

c1ccc2c(-c3cncc(N4CCN(c5cnccn5)CC4)n3)cccc2c1 [compound 331, 6-Naphthalen-1-yl-2′,3′,5′,6′-tetrahydro-[2,1′;4′,2″]terpyrazine]
IC50 [2]: 10 to 100 µM

Cc1cc(C)cc(-c2cncc(N3CCN(c4cnccn4)CC3)n2)c1 [compound 344, 6-(3,5-Dimethyl-phenyl)-2′,3′,5′,6′-tetrahydro-[2,1′;4′,2″]terpyrazine]
IC50 [2]: 10 to 100 µM

Fc1ccc(N2CCN(c3cncc(-c4csc5ccccc45)n3)CC2)cc1 [compound 235, 6′-Benzo[b]thiophen-3-yl-4-(4-fluoro-phenyl)-3,4,5,6-tetrahydro-2H-[1,2′]bipyrazinyl]
IC50 [2]: 1 to 10 µM

COc1ccc(N2CCN(c3cncc(-c4cc(C)cc(C)c4)n3)CC2)cc1OC [compound 170, 4-(3,4-Dimethoxy-phenyl)-6′-(3,5-dimethyl-phenyl)-3,4,5,6-tetrahydro-2H-[1,2′]bipyrazinyl]
IC50 [1]: 10 to 100 µM

Oc1ccc(-c2cncc(N3CCN(c4ccncc4)CC3)n2)cc1 [compound 57, 4-(4-Pyridin-4-yl-3,4,5,6-tetrahydro-2H-[1,2′]bipyrazinyl-6′-yl)-phenol]
IC50 [1]: 10 to 100 µM

NC(=O)c1cccc(-c2cncc(N3CCN(c4ccncc4)CC3)n2)c1 [Comp. 71, 3-(4-Pyridin-4-yl-3,4,5,6-tetrahydro-2H-[1,2′]bipyrazinyl-6′-yl)-benzamide]
IC50 [1]: 1 to 10 µM

Fc1ccccc1N1CCN(c2cncc(-c3ccoc3)n2)CC1 [compound 126, 4-(2-Fluoro-phenyl)-6′-furan-3-yl-3,4,5,6-tetrahydro-2H-[1,2′]bipyrazinyl]
IC50 [1]: 1 to 10 µM

Cc1cccc(-c2cncc(N3CCN(c4ccc(F)cc4)CC3)n2)c1 [compound 232, 4-(4-Fluoro-phenyl)-6′-m-tolyl-3,4,5,6-tetrahydro-2H-[1,2′]bipyrazinyl]
IC50 [2]: 10 to 100 µM

COc1ccc(OC)c(-c2cncc(N3CCN(c4ccc(F)cc4F)CC3)n2)c1 [compound 144, 4-(2,4-Difluoro-phenyl)-6′-(2,5-dimethoxy-phenyl)-3,4,5,6-tetrahydro-2H-[1,2′]bipyrazinyl]
IC50 [1]: 10 to 100 µM

COc1ccc(-c2cncc(NCCc3cccnc3)n2)cc1 [compound 18]
IC50 [1]: < 1 µM

CC(=O)c1ccccc1-c1cncc(N2CCN(c3ccncc3)CC2)n1 [compound 218, 1-[2-(4-Pyridin-4-yl-3,4,5,6-tetrahydro-2H-[1,2′]bipyrazinyl-6′-yl)-phenyl]-ethanone]
IC50 [2]: 10 to 100 µM

CC(=O)c1cccc(-c2cncc(N3CCN(c4cccc(Cl)c4)CC3)n2)c1 [compound 101, 1-{3-[4-(3-Chloro-phenyl)-3,4,5,6-tetrahydro-2H-[1,2′]bipyrazinyl-6′-yl]-phenyl}-ethanone]
IC50 [1]: 1 to 10 µM

Cc1cccc(N2CCN(c3cncc(-c4ccc(C(N)=O)cc4)n3)CC2C)c1 (stereo not drawn) [compound 299, 4-(3-Methyl-4-m-tolyl-3,4,5,6-tetrahydro-2H-[1,2′]bipyrazinyl-6′-yl)-benzamide]
IC50 [2]: 1 to 10 µM

CC(=O)c1ccc(-c2cncc(N3CCN(c4ccncc4)CC3)n2)s1 [compound 65, 1-[5-(4-Pyridin-4-yl-3,4,5,6-tetrahydro-2H-[1,2′]bipyrazinyl-6′yl)-thiophen-2-yl]-ethanone]
IC50 [1]: < 1 µM

COc1ccc(N2CCN(c3cncc(-c4csc5ccccc45)n3)CC2)cc1OC [compound 227, 6′-Benzo[b]thiophen-3-yl-4-(3,4-dimethoxy-phenyl)-3,4,5,6-tetrahydro-2H-[1,2′]bipyrazinyl]
IC50 [2]: 1 to 10 µM

O=C(c1ccco1)N1CCN(c2cncc(-c3cccc(CO)c3)n2)CC1 [compound 58, Furan-2-yl-[6′-(3-hydroxymethyl-phenyl)-2,3,5,6-tetrahydro-[1,2′]bipyrazinyl-4-yl]-methanone]
IC50 [1]: 10 to 100 µM

NC(=O)c1ccc(-c2cncc(NCCc3c[nH]c4ccccc34)n2)cc1 [compound 35, 4-{6-[2-(1H-Indol-3-yl)-ethylamino]-pyrazin-2-yl}-benzamide]
IC50 [1]: < 1 µM

Fc1ccc(-c2cncc(N3CCN(c4ccccc4)CC3)n2)cc1 [compound 111, 6′-(4-Fluoro-phenyl)-4-phenyl-3,4,5,6-tetrahydro-2H-[1,2′]bipyrazinyl]
IC50 [1]: 1 to 10 µM

Cc1cc(C)cc(-c2cncc(N3CCN(c4ccncc4)CC3)n2)c1 [compound 165, 6′-(3,5-Dimethyl-phenyl)-4-pyridin-4-yl-3,4,5,6-tetrahydro-2H-[1,2′]bipyrazinyl]
IC50 [1]: 1 to 10 µM

CC(=O)c1ccc(N2CCN(c3cncc(-c4csc5ccccc45)n3)CC2)cc1 [compound 152, 1-[4-(6′-Benzo[b]thiophen-3-yl-2,3,5,6-tetrahydro-[1,2′]bipyrazinyl-4-yl)-phenyl]-ethanone]
IC50 [1]: 1 to 10 µM

Cc1cccc(N2CCN(c3cncc(-c4cc5ccccc5s4)n3)CC2)c1C [compound 295, 6′-Benzo[b]thiophen-2-yl-4-(2,3-dimethyl-phenyl)-3,4,5,6-tetrahydro-2H-[1,2′]bipyrazinyl]
IC50 [2]: 10 to 100 µM

COc1ccc(N2CCN(c3cncc(-c4cccs4)n3)CC2)cc1OC [compound 44, 4-(3,4-Dimethoxy-phenyl)-6′-thiophen-2-yl-3,4,5,6-tetrahydro-2H-[1,2′]bipyrazinyl]
IC50 [1]: 1 to 10 µM

CCOc1ccc(-c2cncc(N3CCN(c4ccccc4OC)CC3)n2)cc1 [compound 92, 6′-(4-Ethoxy-phenyl)-4-(2-methoxy-phenyl)-3,4,5,6-tetrahydro-2H-[1,2′]bipyrazinyl]
IC50 [1]: 10 to 100 µM

c1ccc(C2CCN(c3cncc(-c4ccsc4)n3)CC2)cc1 [compound 336, 2-(4-Phenyl-piperidin-1-yl)-6-thiophen-3-yl-pyrazine]
IC50 [2]: 1 to 10 µM

Cc1ccc(N2CCN(c3cncc(-c4cc(C)cc(C)c4)n3)CC2)cc1 [compound 177, 6′-(3,5-Dimethyl-phenyl)-4-p-tolyl-3,4,5,6-tetrahydro-2H-[1,2′]bipyrazinyl]
IC50 [1]: 10 to 100 µM
